Assay results: patent publication US20100049117A1, “Microporator for Porating a Biological Membrane and Integrated Permeant Administering System” (PANTEC BIOSOLUTIONS AG, priority 2005, published 2010)

Assay: Serum concentration of drug over time after application onto microporated skin (FIG. 10a, 10b)
Assay type: in vivo
Settings: for period of time of maximal serum concentration: transdermal
Description: FIG. 10a, 10b show the serum concentration of a drug over time, with the same amount of drug but different permeation surfaces.
The drug is entering the permeation surface by passive diffusion. The amount of drug entering the permeation surface is mainly determined by the permeation surface A(t) over time. Therefore, the serum concentration as a function of time can be determined by an appropriate poration of the skin 1 with an initial microporation.
FIG. 10a to 10b show the administration of the same drug, for example 100 mg acetylsalicylic acid, the drug being arranged on the skin 1 as disclosed in FIG. 3c. Depending on the permeation surface A(t) as a function of time, the level of the serum concentration as well as the time period within which the drug is released, can be predescribed. In FIG. 10a the permeation surface A(t), not shown in detail, is chosen such that the maximal serum concentration is about 25 g/l over a short period of time of about two hours. […] A further advantage is that the same amount of drug, e.g. the same patch, applied onto the skin 1, causes a different serum concentration, depending only on the function of the permeation surface A over time. This allows administering the same drug in different ways. This also allows administering the same drug in an individual way, in that the initial permeation surface is created depending on individual parameters of the person the drug is applied to.

period of time of maximal serum concentration (FIG. 10a, 100 mg): about two
maximal serum concentration (FIG. 10b, 100 mg, fast application (turbo), patch on microporated skin (transdermal)): about 30 g/l
period of time of maximal serum concentration (FIG. 10b, 100 mg, fast application (turbo)): about two
course of serum concentration (oral application OA): heavy fluctuation
course of serum concentration (transdermal application TD): about constant value
Compound: CC(=O)Oc1ccccc1C(=O)O [acetylsalicylic acid]
